Non-standard residues stand in square brackets, D forms with d. Residues, ends and D or L forms follow the SMILES beside them. dNMeCha = CN[C@H](CC1CCCCC1)C(=O)O
Assays:
Type in all cases: biochemical
human plasma [1] = assay: Human plasma anticoagulation, activated partial thromboplastin time (APTT)
Procedure, shortened: (§1)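 Compounds added across a wide concentration range to human plasma; APTT, PT and TT clotting times measured on a coagulation instrument, bovine thrombin used for plasma assays. Concentration doubling clotting time estimated by linear extrapolation.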

factor Xa = molecular target: T1, factor Xa (Homo sapiens, UniProt P00742); assay: Serine protease inhibition (Kass), factor Xa
T1 construct: Human factors X, Xa, IXa, XIa, and XIIa are purchased from Enzyme Research Laboratories; purchased Enzyme Research Laboratories, South Bend, Ind
T1 sequence (P00742 235-488 limits assumed): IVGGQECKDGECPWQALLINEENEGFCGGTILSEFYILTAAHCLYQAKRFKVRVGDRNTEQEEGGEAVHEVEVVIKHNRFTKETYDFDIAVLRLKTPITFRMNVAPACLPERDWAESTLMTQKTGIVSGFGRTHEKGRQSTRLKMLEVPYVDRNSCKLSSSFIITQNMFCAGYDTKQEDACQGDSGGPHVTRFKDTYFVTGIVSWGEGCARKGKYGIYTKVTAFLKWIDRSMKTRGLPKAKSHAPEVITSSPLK
T1 sequence (P00742 41-179 partner limits assumed): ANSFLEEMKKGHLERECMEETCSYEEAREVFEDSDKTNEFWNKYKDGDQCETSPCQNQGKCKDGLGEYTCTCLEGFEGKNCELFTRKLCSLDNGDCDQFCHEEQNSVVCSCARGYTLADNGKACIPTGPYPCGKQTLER
Procedure, shortened: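 Chromogenic p-nitroanilide substrate assays run as for human thrombin; trypsin with N-Benzoyl-Phe-Val-Arg-p-nitroanilide, human factor Xa with N-Benzoyl-Ile-Glu-Gly-Arg-p-nitroanilide. Values are association constants (Kass).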

human plasma [2] = assay: Human plasma anticoagulation, prothrombin time (PT)
Procedure, shortened: as §1

human plasma [3] = assay: Human plasma anticoagulation, thrombin time (TT)
Procedure, shortened: as §1

## CN[C@H](CC1CCCCC1)C(=O)N1CCC[C@H]1C(=O)N[C@H](C=O)CCCNC(=N)N.Cl [Example 75, N-methyl-D-cyclohexylalanyl-L-Prolinyl-L-Arginine Aldehyde Hydrochloride] (H-[dNMeCha]-Pro-Arg-aldehyde)
Human plasma [1]
  2 × Clotting time APTT: 420 ng/mL
Factor Xa
  Kass Xa: 5.6 L/mol × 10^6
Human plasma [2]
  2 × Clotting time PT: 720 ng/mL
Human plasma [3]
  2 × Clotting time TT: 18 ng/mL
